The test system of this assay is bovine capillary endothelial (BCE) cells. Description: Inhibition of bFGF stimulated BCE cell proliferation in Transwells (CyQUANT). Format: cell-based. The settings on record: 1 ng/ml bFGF, 72 hrs. The procedure: COS-7 cells were transfected with pAM9-myc, pAM9-RGD and pAM9-K1 plasmids, respectively, that direct the expression and secretion of the Myc epitope-6xHis, the RGD and the angiostatin first kringle domain peptides. The transfected COS-7 cells were co-incubated in Transwells with BCE cells whose proliferation was stimulated by 1 ng/ml bFGF. As controls, untransfected COS-7 cells and bFGF stimulated BCE cells were similarly co-incubated and synthetic Myc-6xHis and RGD peptides as well as purified K1 were added to the media at the indicated concentrations. The proliferation of the bFGF stimulated BCE cells were measured 72 hrs later using the fluorescent CyQUANT proliferation kit (Molecular Probes).

Regarding “CDCRGDCFC [RGD peptide, positive control]”, the “inhibition of bFGF stimulated BCE cell proliferation” value is “inhibited” (peptide secreted from transfected COS-7 cells co-incubated in Transwells) and “inhibited” (synthetic or purified peptide added to the media, untransfected COS-7 cells co-incubated).

The values are drawn from US6420110B1, “Methods and reagents for isolating biologically active peptides” (GPC Biotech, Inc., priority 1998, dated 2002).
